Legend:
Set-up in all cases: species or system human
Conditions in all cases: (GGGS)3-linker versus GSGS-linker droplets; no salt, pH 7.0
[1] = tested on: p53 monomer (L344P) mutant; assay: Recruitment (enrichment index) of p53 monomer into designed peptide droplets
Source text: (§1) We prepared p53 tetramer, dimer, and monomer mutants, as described previously[8],[37],[50]. For the p53 tetramer, a thermostable and cysteine-modified human p53 mutant (C124A, C135V, C141V, W146Y, C182S, V203A, R209P, C229Y, H233Y, Y234F, N235K, Y236F, T253V, N268D, C275A, C277A, and K292C) was used[50]. The dimer and monomer mutants of p53 corresponded to L344A and L344P of the tetramer sequence, respectively[8],[37]. These p53 mutants were expressed with a glutathione S-transferase (GST) tag in E. coli and purified after cleavage of the GST tag, as described previously[50],[51]. The oligomeric state of p53 mutants was confirmed using a gel filtration column (Superdex 200; GE Healthcare). p53 mutants were labeled with Atto488 (ATTO-TEC) or Alexa488 (Thermo Fisher) using maleimide chemistry and then purified using a heparin column (GE Healthcare). We prepared Alexa488-labeled FUS-MBP as described previously[37],[39].
(§2) Recruitment evaluations were performed following the method described in our previous studies[37],[41]. Solutions containing 0.9–1.8 mM designed peptides, 0.1 µM Alexa488-labeled p53 mutants or Alexa488, 25 mM HEPES, 0.5 mM EDTA, and 1 mM DTT at pH 7.0 were used. The solutions were then incubated at 22 °C for five minutes. The aforementioned microscope was used with HILO illumination. To prevent photo-bleaching of the fluorescent samples, we used a laser power of 0.15 mW. The images were acquired at 22 °C. Using the ImageJ software, we calculated the EI values of the individual droplets as follows:2 EI=Idroplet/Isolution, where Idroplet and Isolution represent the average fluorescence intensities of the individual droplets and solutions near the droplets with background substitution, respectively.

p53 dimer (L344A) mutant = assay: Recruitment (enrichment index) of p53 dimer into designed peptide droplets
Source text: as §1
Recruitment evaluations were performed following the method described in our previous studies[37],[41]. […] Using the ImageJ software, we calculated the EI values of the individual droplets as follows:2 EI=Idroplet/Isolution, where Idroplet and Isolution represent the average fluorescence intensities of the individual droplets and solutions near the droplets with background substitution, respectively.

p53 tetramer = assay: Recruitment (enrichment index) of p53 tetramer into designed peptide droplets
Source text: as §1, §2

RRRVVQRRRRGGGSGGGSGGGSDDDASQEDDD [DPp53N-(GGGS)3-DPp53C1]
Decrease of average EI of p53 monomer mutant compared to the GSGS-linker peptide [1]: 1.2 fold | Increase of average EI of p53 dimer mutant compared to the GSGS-linker peptide (p53 dimer (L344A) mutant): 1.5 fold | Increase of average EI of p53 tetramer compared to the GSGS-linker peptide (p53 tetramer): 1.8 fold

From paper PMC10079954, “Rational design of phase separating peptides based on phase separating protein sequence of p53” (Scientific Reports, 2023)
